Values after ≈ are worked out from the molar mass of the structure shown. Structures can show the parent of a compound that is named as a salt. Where two headings read alike, the source gives them in different places.
Experiments:
[1] = test system: Neisseria meninigitidis A21496; assay: MIC, serial two-fold agar dilution, aerobic bacteria; type: cell-based; conditions: Nm-4, medium B: GC medium (Eiken)
aerobic bacteria = assay: antibacterial activity against aerobic bacteria; type: cell-based; conditions: for activity against usual aerobic organisms: E. coli and K. pneumoniae; for susceptibility of Bacillus species, streptococci, Neisseria meningitidis, N. gonorrhoeae and Hemophilus influenzae: in vitro
[2] = Stability in acidic and alkaline solution; type: physicochemical; conditions: for stability in alkaline solution: relative to acidic
[3] = test system: two anaerobic and one aerobic organisms; assay: Bactericidal activity; type: cell-based
[4] = test system: Klebsiella pneumoniae A9678; assay: MIC, serial two-fold agar dilution, aerobic bacteria; type: cell-based; conditions: Kp-2; medium A: Nutrient agar (Eiken)
S. pyogenes A20201 = assay: Systemic infection with S. pyogenes in mice; type: in vivo; conditions: po; 5 days
[5] = test system: C. perfringens or S. pyogenes; type: in vivo, mice
[6] = test system: various aerobic and anaerobic organisms; assay: Antibacterial spectrum; conditions: variety of anaerobic bacteria and some aerobic bacteria
C. perfringens A9635 = type: in vivo, mice; conditions: po; 5 days
Solubility = type: physicochemical; conditions: lower alcohols, ethyl acetate, chloroform and benzene
B. fragilis A20928-1 = assay: Inoculum size effect on MIC; type: cell-based; conditions: Bacteroides fragilis, A209281, read-out: MIC in GAM broth, GAM broth; inoculum […] 10^6 cell/ml
B. fragilis A20926 = assay: Localized infection with B. fragilis in mice; type: in vivo
[7] = test system: Neisseria meninigitidis A20049; assay: MIC, serial two-fold agar dilution, aerobic bacteria; type: cell-based
[8] = subcutaneous and oral
bacterial RNA polymerase = conditions: Antimicrobial Agents and Chemotherapy 1976, page 618; cited from earlier work
[9] = test system: Escherichia coli K-12 A9632; assay: MIC, serial two-fold agar dilution, aerobic bacteria; conditions: K12A9632
[10] = Nm-2, medium B: GC medium (Eiken), read-out: MIC

Compound: COC(=O)C1C(C)OC2(C)CC(=O)C3OC12OC(C(C)/C=C(C)/C=C/C(=O)C1=C(O)CN(C)C1=O)C3C (centres unmarked) [Bu-2313A]
- MIC [1]: 3.1 µg/mL (≈ 5.99 µM)
- activity against usual aerobic organisms (aerobic bacteria): only moderate to weak activity
- susceptibility of Bacillus species, streptococci, Neisseria meningitidis, N. gonorrhoeae and Hemophilus influenzae (aerobic bacteria): susceptible
- stability in acidic solution [2]: stable
- stability in alkaline solution [2]: less so
- type of antibacterial action [3]: bacteriostatic rather than bactericidal
- MIC [4]: > meningitidis
- PD50 (S. pyogenes A20201): NA at 25
- activity by the oral route ([5]; oral): inactive
- antibacterial activity [6]: exhibit antibacterial activity
- PD50 (C. perfringens A9635): NA at 50
- solubility in most organic solvents (Solubility): readily soluble
- MIC (B. fragilis A20928-1): 0.006 µg/mL (≈ 0.0116 µM)

Compound: COC(=O)C1C(C)OC2(C)CC(=O)C3OC12OC(C(C)/C=C(C)/C=C/C(=O)C1=C(O)CNC1=O)C3C (centres unmarked) [Bu-2313B (Na salt)]
- mean score (B. fragilis A20926; oral, 6.3 × 5 mg/kg): 3.4
- sum of score (B. fragilis A20926; oral, 6.3 × 5 mg/kg): 17
- mean score (B. fragilis A20926; oral, 25 × 5 mg/kg): 3.0
- sum of score (B. fragilis A20926; oral, 25 × 5 mg/kg): 15
- mean score (B. fragilis A20926; oral, 100 × 5 mg/kg): 2.4
- sum of score (B. fragilis A20926; oral, 100 × 5 mg/kg): 12
- mean score (B. fragilis A20926; oral, […] 5 mg/kg): 4.0
- sum of score (B. fragilis A20926; oral, […] 5 mg/kg): 20
- mean score (B. fragilis A20926; subcutaneous, 0.8 × 5 mg/kg): 4.0
- sum of score (B. fragilis A20926; subcutaneous, 0.8 × 5 mg/kg): 20
- mean score (B. fragilis A20926; subcutaneous, 3.1 × 5 mg/kg): 3.4
- sum of score (B. fragilis A20926; subcutaneous, 3.1 × 5 mg/kg): 17
- mean score (B. fragilis A20926; subcutaneous, 50 × 5 mg/kg): 2.2
- sum of score (B. fragilis A20926; subcutaneous, 50 × 5 mg/kg): 11
- mean score (B. fragilis A20926; subcutaneous, […] 5 mg/kg): 2.8
- sum of score (B. fragilis A20926; subcutaneous, […] 5 mg/kg): 14

Compound: COC(=O)C1C(C)OC2(C)CC(=O)C3OC12OC(C(C)/C=C(C)/C=C/C(=O)C1=C(O)CNC1=O)C3C (centres unmarked) [Bu-2313B]
- MIC [1]: 1.6 µg/mL (≈ 3.18 µM)
- activity against usual aerobic organisms (aerobic bacteria): only moderate to weak activity
- susceptibility of Bacillus species, streptococci, Neisseria meningitidis, N. gonorrhoeae and Hemophilus influenzae (aerobic bacteria): susceptible
- stability in acidic solution [2]: stable
- stability in alkaline solution [2]: less so
- type of antibacterial action [3]: bacteriostatic rather than bactericidal
- protection against systemic infections ([5]; both subcutaneous and oral administration): fairly good protection
- MIC [7, 10]: 0.8 µg/mL (≈ 1.59 µM)
- antibacterial activity [6]: exhibit antibacterial activity
- solubility in most organic solvents (Solubility): readily soluble

Compound: CCC[C@@H]1C[C@@H](C(=O)N[C@@H]([C@H]2O[C@H](SC)[C@H](O)[C@@H](O)[C@H]2O)[C@H](C)Cl)N(C)C1 [Clindamycin]
- mean score (B. fragilis A20926; oral, 6.3 × 5 mg/kg): 2.6
- sum of score (B. fragilis A20926; oral, 6.3 × 5 mg/kg): 13
- mean score (B. fragilis A20926; oral, 25 × 5 mg/kg): 1.8
- sum of score (B. fragilis A20926; oral, 25 × 5 mg/kg): 9
- sum of score (B. fragilis A20926; oral, 100 × 5 mg/kg): 2
- mean score (B. fragilis A20926; oral, […] 5 mg/kg): 4.0
- sum of score (B. fragilis A20926; oral, […] 5 mg/kg): 20
- mean score (B. fragilis A20926; subcutaneous, 0.8 × 5 mg/kg): 4.0
- sum of score (B. fragilis A20926; subcutaneous, 0.8 × 5 mg/kg): 20
- mean score (B. fragilis A20926; subcutaneous, 3.1 × 5 mg/kg): 2.0
- sum of score (B. fragilis A20926; subcutaneous, 3.1 × 5 mg/kg): 10
- mean score (B. fragilis A20926; subcutaneous, 50 × 5 mg/kg): 0.8
- sum of score (B. fragilis A20926; subcutaneous, 50 × 5 mg/kg): 4
- mean score (B. fragilis A20926; subcutaneous, […] 5 mg/kg): 1.4
- sum of score (B. fragilis A20926; subcutaneous, […] 5 mg/kg): 7
- MIC [7]: 0.05 µg/mL (≈ 0.118 µM)

Compound: Cc1ncc([N+](=O)[O-])n1CCO [Flagyl]
- absorption relative to Bu-2313B [8]: better absorptions than Bu-2313B
- mean score (B. fragilis A20926; oral, 6.3 × 5 mg/kg): 3.4
- sum of score (B. fragilis A20926; oral, 6.3 × 5 mg/kg): 17
- mean score (B. fragilis A20926; oral, 25 × 5 mg/kg): 2.6
- sum of score (B. fragilis A20926; oral, 25 × 5 mg/kg): 13
- mean score (B. fragilis A20926; oral, 100 × 5 mg/kg): 1.6
- sum of score (B. fragilis A20926; oral, 100 × 5 mg/kg): 8
- mean score (B. fragilis A20926; oral, […] 5 mg/kg): 4.0
- sum of score (B. fragilis A20926; oral, […] 5 mg/kg): 20
- mean score (B. fragilis A20926; subcutaneous, 0.8 × 5 mg/kg): 4.0
- sum of score (B. fragilis A20926; subcutaneous, 0.8 × 5 mg/kg): 20
- mean score (B. fragilis A20926; subcutaneous, 3.1 × 5 mg/kg): 3.4
- sum of score (B. fragilis A20926; subcutaneous, 3.1 × 5 mg/kg): 17
- mean score (B. fragilis A20926; subcutaneous, 50 × 5 mg/kg): 2.0
- sum of score (B. fragilis A20926; subcutaneous, 50 × 5 mg/kg): 10
- mean score (B. fragilis A20926; subcutaneous, […] 5 mg/kg): 2.4
- sum of score (B. fragilis A20926; subcutaneous, […] 5 mg/kg): 12

Compound: CC(/C=C/C(=O)C1=C(O)CNC1=O)=C\C(C)C1OC2(C)OC(C(=O)C3OC32C)C1C (centres unmarked) [Tirandamycin]
- MIC [1]: 0.8 µg/mL (≈ 1.92 µM)
- inhibition of bacterial RNA polymerase (bacterial RNA polymerase): inhibitor of bacterial RNA polymerase
- MIC [7, 10]: 0.8 µg/mL (≈ 1.92 µM)
- MIC [9]: 100 µg/mL (≈ 240 µM)

Compound: CNC(=O)C(C)C1C(O)=C(C(=O)/C=C/C(C)=C/C(C)C2OC3(C)OC(C=CC34CO4)C2C)C(=O)N1C1CCC(O)C(C)O1 (centres unmarked) [streptolydigin]
- inhibition of bacterial RNA polymerase (bacterial RNA polymerase): inhibitor of bacterial RNA polymerase in a manner similar to streptolydigin
